Where a SMILES comes first, the peptide text is derived from it. Bridges are numbered along the chain shown (N, C = ends). Roman numbers before positions name the chains, in order. Primed or numbered codes have the meaning given here. Where no end group is shown, it is not given here. The star is where a group is joined. 5FAM = O=C1OC2(c3ccc(O)cc3Oc3cc(O)ccc32)c2ccc(C(=O)*)cc21; 5FAM″ = 5-carboxyfluorescein label
What was measured:
4T1 tumors = assay: In vivo tumor homing of FAM-labeled peptides (confocal imaging); conditions: 200 μL of 1 mM FAM-peptide i.v.
Procedure: Mice bearing orthotopic tumors generated with 4T1 mouse breast cells were intravenously injected with the 200 μL of 1 mM fluorescamine (FAM)-conjugated CAR peptide. The circulation time was 1 hour.
Confocal images of sections of the tumor and normal organs from mice injected with the 200 μL of 1 mM FAM-tCAR peptide. The circulation time was 2 hours.
Confocal images of sections of the tumor and normal organs from mice injected with the 200 μL of 1 mM FAM-ARSKNK peptide. The circulation time was 1 hour.
Confocal images of sections of the tumor and normal organs from mice injected with the 200 μL of 1 mM FAM-KNKSRAC-CARSKNK peptide (SEQ ID NO:4). The circulation time was 1 hour.

[1] = system: monocrotaline-induced PAH lesions; assay: Peptide homing to lungs in monocrotaline-induced PAH rats (anti-FITC immunohistochemistry); format: in vivo, rat; conditions: for accumulation of peptide in the PAH lungs: 2 hours after injection; for accumulation in the kidney: MCT-treated PAH rats and untreated healthy animals
Procedure: Monocrotaline (Sigma-Aldrich, St. Louis, Mo.) was dissolved in 0.3 M hydrochloride solution and neutralized with 0.3 M sodium hydroxide solution, and adjusted pH around 7.0. Adult male Sprague-Dawley rats (150-200 g, Harlan Laboratories, Indianapolis, Ind.) were administered with a single subcutaneous injection of monocrotaline solution at a dose of 60 mg/kg body weight, while control rats were administered with 0.9% saline (Bader, M. Rat models of cardiovascular diseases. Methods Mol Biol 597, 403-14 (2010)). Rats were randomly selected and studied for peptide targeting studies on 1, 3, 7, 14 or 21 days after the treatment of monocrotaline.
(§1) The following peptides were labeled with 5-carboxyfluorescein (FAM) and used for the lung targeting studies: CAR, CARSKNKDC (SEQ ID NO:147); VCAM1, CVHSPNKKCGGSK (SEQ ID NO:13); CG7C control CGGGGGGGC (SEQ ID NO:14); CAR mutant (CAR-M), CAQSNNKDC (SEQ ID NO:15). Peptides were dissolved in PBS at the concentrations of 0.5 mg/mL. Hypertensive rats were injected with peptide solution through tail vein (3.3 mg/kg). At 2 hours after the injection, rats were perfused with PBS containing 1% bovine serum albumin under the deep anesthesia and tissues were fixed by systemic perfusion with 10% buffered formalin. The organs were excised and fixed for additional 24 hours and processed for anti-fluorescein immunohistochemistry.
To determine the localization of the peptides, paraffin-embedded tissue sections were immunostained with rabbit anti-fluoroscein isothiocyanate (FITC) antibody (Invitrogen, Carlsbad, Calif.) followed by horseradish peroxidase-labeled anti-rabbit IgG secondary antibody. The peptide localization was then visualized by DAB. Sections were counter stained with hematoxylin to visualize the region of cells. An automated staining system, Discovery XT (Ventana, Tucson, Ariz.) was used for the staining. To examine the co-localization of the peptides with macrophages or alveolar type II cells, tissue sections were doubly stained with rabbit anti-FITC antibody and mouse anti-rat-CD68 antibody; EDI (Serotec, Raleigh, N.C.) or rabbit anti-Prosurfactant Protein C (proSP-C, Millipore, Temecula, Calif.), respectively. For FITC/proSP-C double staining, FITC staining was completed first. The tissues sections were then treated withcitrate buffer (pH 6.0) at 98° C. for 10 min before proceeding to proSP-C staining. Biotinylated species-specific secondary antibodies and alkaline phosphatase-labeled streptavidin (Vector Laboratories, Burlingame, Calif.) were used to visualize macrophages and alveolar type II cells with Permanent Red (Dako, Carpinteria, Calif.).
Images of stained slides were observed and captured with ECLIPSE 90i or 80i microscope with CCD camera DS-5M (Nikon Instruments, Melville, N.Y.). To quantify the targeting efficiency of the peptides to the lung, the immunostained sections were scanned by Aperio Scanscope XT and analyzed using ImageScope software (Aperio Technologies, Vista, Calif.). For the quantification of area and density of peptide staining, the Aperio Color Deconvolution tool was used to compare total peptide positive area and intensity of peptide staining in each animal. The thresholds were set empirically for strong, medium, and weak staining. The area of each level of staining was presented as percent of such area in the total cell area. The total stained area was normalized by hematoxylin stained area of same regions.
A rat model of monocrotaline (MCT)-induced pulmonary arterial hypertension was used for this study. Briefly, male Sprague-Dawley rats (150-200 g, Harlan Laboratories, IN) were administered with a single subcutaneous injection of monocrotaline at 60 mg/kg (Sigma-Aldrich, MO), while control rats administered 0.9% saline. Rats were randomly selected and studied for peptide distribution studies on 1, 3, 7, 14 or 21 days after the treatment of monocrotaline. […]

mitochondrial membranes = conditions: at a concentration of 10 μM; cited from earlier work
[2] = system: SU5416/hypoxia-induced PAH lesions; format: in vivo, rat
Procedure: Adult male Sprague-Dawley rats (approx. 200 g) were injected subcutaneously with SU5416 (20 mg/kg body weight; SUGEN Inc, South San Francisco, Calif.), which was suspended in carboxymethylcellulose (0.5% carboxymethylcellulose sodium, 0.9% sodium chloride, 0.4% polysorbate, 0.9% benzyl alcohol in deionized water). The rats were then exposed to chronic hypoxia in a hypobaric chamber (barometric pressure, 410 mm Hg: inspired O2 tension, 76 mm Hg) for 3 weeks followed by an additional 6 weeks of reexposure to normoxia. Rats were examined at 9 weeks after the injection of SU5416 when they develop severe occlusive pulmonary arterial lesions (Abe, K. et al. Formation of plexiform lesions in experimental severe pulmonary arterial hypertension. Circulation 121, 2747-54 (2010)).
as §1, with “CVHSPNKKCGGSK” left out, “The organs were excised and fixed for additional 24 hours and processed for anti-fluorescein immunohistochemistry.” left out

[3] = MCT-treated rats, FAM-peptide 3.3 mg/kg i.v.

Compound: CARSKNK (also: FAM label, position not given here) [tCAR]
- accumulation in normal tissues (4T1 tumors; circulation time 2 hours): not detectable accumulation
- spreading within tumor tissue (4T1 tumors; circulation time 2 hours): wider spreading within tumor tissue than CAR

Compound: CVHSPNKKCGGSK (CVHSPNKKCGGSK-{5FAM″}; cysteine pairing not given here) [VCAM-1 binding peptide]
- accumulation of peptide in the PAH lungs [1, 3]: accumulated in the PAH lungs to a similar extent to CAR
- accumulation of peptide in healthy normal lung ([1]; non-MCT-treated rats, FAM-peptide 3.3 mg/kg i.v., 2 hours): a fair amount

Compound: KNKSRAC-CARSKNK (disulfide I:7-II:1 (inferred); not fully specified (N-terminus); also: FAM label, position not given here) [dimeric tCAR]
- accumulation in tumor tissue (4T1 tumors; circulation time 1 hour): less tumor accumulation than the monomeric tCAR peptide

Compound: C[C@@H]1NC(=O)[C@@H](NC(=O)c2ccc3c(c2)C(=O)OC32c3ccc(O)cc3Oc3cc(O)ccc32)CSSC[C@@H](C(=O)O)NC(=O)[C@H](CC(=O)O)NC(=O)[C@H](CCCCN)NC(=O)[C@H](CC(N)=O)NC(=O)[C@H](CCCCN)NC(=O)[C@H](CO)NC(=O)[C@H](CCCNC(=N)N)NC1=O [CAR, CARSKNKDC] (5FAM-CARSKNKDC-OH; disulfide 1-9)
- accumulation in the kidney [1]: accumulation in the kidney was observed
- accumulation in other organs ([1]; MCT-treated rats, organs other than lung, except kidney): absent or very weak

Compound: D(KLAKLAK)2 (KLAKLAKKLAKLAK; D-amino acids; membrane perturbing molecule)
- mitochondrial swelling (mitochondrial membranes): marked mitochondrial swelling

Compound: ARSKNK (5FAM-ARSKNK)
- accumulation in tumor tissue (4T1 tumors; circulation time 1 hour): Little ARSKNK peptide accumulated in the tumor tissue
- fluorescence in the heart (4T1 tumors; circulation time 1 hour): some fluorescence was detected in the heart

Compound: CAQSNNKDC (cysteine pairing not given here; also: labelled with FAM, site not given here) [CAR-M]
- accumulation of peptide in PAH lungs / PAH lesion ([2]; 9 weeks after SU5416, FAM-peptide 3.3 mg/kg i.v., 2 hours): only negligible signal
- detection in remodeled arteries from lung tissue ([2]; peptide 1 mg/300 g rat i.v. in hemodynamic study, anti-fluorescein staining): not

Compound: CGGGGGGGC (5FAM-CGGGGGGGC; cysteine pairing not given here) [CG7C]
- accumulation in the kidney [1]: also accumulated in the kidney
- accumulation of peptide in the PAH lungs [1, 3]: only very weak staining
